From US12491185B2, “Inhibitors of mPTP” (NRG Therapeutics Ltd, priority 2023, dated 2025)

Assays:
mPTP [1] = assay: mPTP activity assay in isolated rat brain mitochondria; format: biochemical; conditions: fluorescence at 10 min timepoint
Method: MPTP activity was measured in brain mitochondria freshly isolated from female Sprague Dawley (250 to 300 gram) rats. Anaesthetised rats were perfused in-situ with −40 ml cold Dulbecco's Phosphate Buffered Saline (DPBS), then brains dissected and transferred into 30 ml Isolation Buffer (225 mM mannitol, 75 mM sucrose, 1 mM EGTA, adjusted to pH 7.4 with 1M NaOH). The brain was minced using tweezers and a scalpel into −5 mm pieces then transferred into a 50 ml Potterton Dounce homogenization tube on ice containing 10 ml ice-cold isolation buffer (as above with addition of Complete Protease inhibitor; 1 tablet per 50 ml buffer). Homogenisation was carried out using a teflon pestle at 1800 rpm. The slurry was centrifuged at 2000 g for 10 min at 4° C., then the supernatant centrifuged at 12,000 g for 9 min. The pellet was resuspended with a dounce homogeniser in isolation buffer as above but with the addition of 0.02% digitonin, centrifuged at 12,000 g for 11 min and finally resuspended in 5 ml modified isolation buffer (as above but with EGTA reduced to 0.1 mM).
Test compounds were prepared in 384 well polypropylene assay plates as described above for the liver mitochondria assay. A stock mitochondria/Fluo5N assay solution was prepared in 5.6 ml assay buffer (120 mM mannitol, 40 mM MOPS, 5 mM KH2PO4, 60 mM KCl, 10 mM pyruvate, 2 mM malate, 2 mM MgCl2, 20 μM ADP, 1.26 μM oligomycin A, adjusted to pH 7.4) supplemented with Fluo5N pentapotassium salt (2 μM) and 1 ml mitochondria suspension, then transferred (15 μl) into the assay plate containing test compounds and incubated for 10 min at RT. Assay plates were then transferred to a FLIPR Tetra plate reader (Molecular Devices). Dye fluorescence was then measured every 3 sec for a total of 10 min.

mPTP [2] = assay: mPTP activity (Ca2+ retention) assay in isolated rat liver mitochondria; format: biochemical; conditions: examples tested by different contract research organisations, believed comparable
How it was run: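 pIC50 was taken from Fluo5N fluorescence at 10 min after a 75 μM CaCl2 bolus, scaled between DMSO (0%) and 5 μM cyclosporin A (100%). Compounds, ten half-log concentrations from 30 μM to 1 nM final, sat 10 min at RT with fresh female Sprague Dawley rat liver mitochondria energized by succinate plus rotenone.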

Structure (SMILES) | mPTP Rat brain pIC50 (mPTP [1]) | mPTP Rat liver pIC50 (mPTP [2])
COC(c1ccccc1)C1(CNC(=O)c2nn(C)c(=O)[nH]2)CCC1 (stereo not shown) [Example 28, N-((1-(methoxy(phenyl)methyl)cyclobutyl)methyl)-1-methyl-5-oxo-4,5-dihydro-1H-1,2,4-triazole-3-carboxamide] | 6.73 | 5.96
Cc1ccccc1CC1(CNC(=O)c2nn(C)c(=O)[nH]2)CCC1 [Example 29, 1-methyl-N-((1-(2-methylbenzyl)cyclobutyl)methyl)-5-oxo-4,5-dihydro-1H-1,2,4-triazole-3-carboxamide] | 7.84 | 6.34
Cn1nc(C(=O)NCC2(Cc3ccccc3Cl)CCC2)[nH]c1=O [Example 30, N-((1-(2-chlorobenzyl)cyclobutyl)methyl)-1-methyl-5-oxo-4,5-dihydro-1H-1,2,4-triazole-3-carboxamide] | 7.63 | 6.20
Cn1nc(C(=O)NCC(C)(C)Cc2ccccc2)[nH]c1=O [Example 31, N-(2,2-dimethyl-3-phenylpropyl)-1-methyl-5-oxo-4,5-dihydro-1H-1,2,4-triazole-3-carboxamide] | 7.37 | 6.48
CC(CNC(=O)c1nn(C)c(=O)[nH]1)Cc1ccccc1 (stereo not shown) [Example 32, 1-methyl-N-(2-methyl-3-phenylpropyl)-5-oxo-4,5-dihydro-1H-1,2,4-triazole-3-carboxamide] | 6.79 | 5.76
Cn1nc(C(=O)NCC2(Cc3ccccc3)CC2)[nH]c1=O [Example 33, N-((1-benzylcyclopropyl)methyl)-1-methyl-5-oxo-4,5-dihydro-1H-1,2,4-triazole-3-carboxamide] | 6.51 | 5.63
CCC(NC(=O)c1nn(C)c(=O)[nH]1)C(C)(C)Cc1ccccc1 (stereo not shown) [Example 34, N-(2,2-dimethyl-1-phenylpentan-3-yl)-1-methyl-5-oxo-4,5-dihydro-1H-1,2,4-triazole-3-carboxamide] | 7.32 | 5.82
Cn1nc(C(=O)NC(C(F)(F)F)C(C)(C)Cc2ccccc2)[nH]c1=O (stereo not shown) [Example 35, 1-methyl-5-oxo-N-(1,1,1-trifluoro-3,3-dimethyl-4-phenylbutan-2-yl)-4,5-dihydro-1H-1,2,4-triazole-3-carboxamide] | 6.86 | 5.23
Cn1nc(C(=O)NCC(C)(C)Cc2ccccc2Br)[nH]c1=O [Example 36, N-(3-(2-bromophenyl)-2,2-dimethylpropyl)-1-methyl-5-oxo-4,5-dihydro-1H-1,2,4-triazole-3-carboxamide] | 7.05 | 5.28
Cn1nc(C(=O)NCC2(Cc3ccccc3Br)CCC2)[nH]c1=O [Example 37, N-((1-(2-bromobenzyl)cyclobutyl)methyl)-1-methyl-5-oxo-4,5-dihydro-1H-1,2,4-triazole-3-carboxamide] | 7.61 | 5.79
CC(NC(=O)c1nn(C)c(=O)[nH]1)C(C)(C)Cc1ccccc1 (stereo not shown) [Example 38, N-(3,3-dimethyl-4-phenylbutan-2-yl)-1-methyl-5-oxo-4,5-dihydro-1H-1,2,4-triazole-3-carboxamide] | 7.30 | 6.14
CCC(CNC(=O)c1nn(C)c(=O)[nH]1)Cc1ccccc1 (stereo not shown) [Example 40, N-(2-benzylbutyl)-1-methyl-5-oxo-4,5-dihydro-1H-1,2,4-triazole-3-carboxamide] | 7.50 | 6.29
Cn1nc(C(=O)NCC(C)(CO)Cc2ccccc2)[nH]c1=O (stereo not shown) [Example 41, N-(2-benzyl-3-hydroxy-2-methylpropyl)-1-methyl-5-oxo-4,5-dihydro-1H-1,2,4-triazole-3-carboxamide] | 6.38 | 5.25
CC(O)C(C)(CNC(=O)c1nn(C)c(=O)[nH]1)Cc1ccccc1 (stereo not shown) [Example 42, N-(2-benzyl-3-hydroxy-2-methylbutyl)-1-methyl-5-oxo-4,5-dihydro-1H-1,2,4-triazole-3-carboxamide] | 6.26 | 5.27
COC(CNC(=O)c1nn(C)c(=O)[nH]1)Cc1ccccc1 (stereo not shown) [Example 43, N-(2-methoxy-3-phenylpropyl)-1-methyl-5-oxo-4,5-dihydro-1H-1,2,4-triazole-3-carboxamide] | 6.81 | 5.03
CCC(C)(CNC(=O)c1nn(C)c(=O)[nH]1)Cc1ccccc1 (stereo not shown) [Example 44, N-(2-benzyl-2-methylbutyl)-1-methyl-5-oxo-4,5-dihydro-1H-1,2,4-triazole-3-carboxamide] | 7.41 | 6.23
O=C(NCC1(Cc2cccc(F)c2)CCC1)c1cncc(O)n1 [Example 49, N-((1-(3-fluorobenzyl)cyclobutyl)methyl)-6-hydroxypyrazine-2-carboxamide] | 7.44 | 4.56
O=C(NCC1(Cc2ccc(F)cc2)CCC1)c1cncc(O)n1 [Example 50, N-((1-(4-fluorobenzyl)cyclobutyl)methyl)-6-hydroxypyrazine-2-carboxamide] | 7.23 | 4.66

Now from value to compound:

mPTP Rat brain pIC50 (mPTP [1]) | mPTP Rat liver pIC50 (mPTP [2]) | Structure (SMILES)
6.91 | 4.71 | O=C(NCC1(Cc2ccccc2)CCCCC1)c1cncc(=O)[nH]1 [Example 47, N-((1-benzylcyclohexyl)methyl)-6-oxo-1,6-dihydropyrazine-2-carboxamide]
5.99 | 4.56 | O=C(NCC1(Cc2ccccc2)CC(F)(F)C1)c1cncc(=O)[nH]1 [Example 48, N-((1-benzyl-3,3-difluorocyclobutyl)methyl)-6-oxo-1,6-dihydropyrazine-2-carboxamide]
6.84 | 5.62 | Cn1nc(C(=O)NCC(Cc2ccccc2)C2CCC2)[nH]c1=O (stereo not shown) [Example 51, N-(2-cyclobutyl-3-phenylpropyl)-1-methyl-5-oxo-4,5-dihydro-1H-1,2,4-triazole-3-carboxamide]
7.64 | 6.41 | CC(c1ccc(F)cc1F)C1(CNC(=O)c2nn(C)c(=O)[nH]2)CCC1 (stereo not shown) [Example 52, N-((1-(1-(2,4-difluorophenyl)ethyl)cyclobutyl)methyl)-1-methyl-5-oxo-4,5-dihydro-1H-1,2,4-triazole-3-carboxamide]
7.46 | 6.46 | Cn1nc(C(=O)NCC(Cc2ccccc2)C2CC2)[nH]c1=O (stereo not shown) [Example 53, N-(2-cyclopropyl-3-phenylpropyl)-1-methyl-5-oxo-4,5-dihydro-1H-1,2,4-triazole-3-carboxamide]
6.73 | 5.76 | CC(C)(CNC(=O)c1ccc(=O)[nH]n1)Cc1ccccc1 [Example 56]
6.25 | 5.43 | CC(C)(CNC(=O)c1ccc2oc(=O)[nH]c2c1)Cc1ccccc1 [Example 57]
5.16 | 4.85 | O=C(NCC1(Cc2ccccn2)CCC1)c1cncc(=O)[nH]1 [Example 62, 6-oxo-N-((1-(pyridin-2-ylmethyl)cyclobutyl)methyl)-1,6-dihydropyrazine-2-carboxamide]
